“Also recorded” adds a separate entry of the source. In the oligonucleotide strings, read from the 5' end, every base follows the letter of its sugar. An asterisk marks phosphorothioate; unmarked linkages are phosphodiester. Other units and linkages are bracketed, terminal groups are in braces. A string of capitals states the bases alone. e = 2'-O-(2-methoxyethyl) (MOE); [5mC] = 5-methylcytosine
Assays:
[1] = system: mir-21 pri-miRNA; assay: mir-21 pri-miRNA expression in HeLa cells (real-time RT-PCR); assay type: cell-based, human; conditions: for mir-21 pri-miRNA expression % UTC: HeLa cells, real-time RT-PCR; for mir-21 pri-miRNA expression % UTC / levels of the mir-21 pri-miRNA molecule: 100 nM; for levels of the mir-21 pri-miRNA molecule: HeLa; for mir-21 pri-miRNA levels, dose response: HeLa, 25, 50, 100 and 200 nM
Experimental: In one embodiment, the expression of mir-21 (noted to be expressed at high levels in HeLa cells) was assessed in cells treated with oligomeric compounds. Using the transfection methods previously described, HeLa cells were treated with 100 nM of the uniform 2′-MOE oligomeric compound ISIS Number 327917 (SEQ ID NO: 335) targeting the mir-21 mature miRNA. Total RNA was isolated by lysing cells in 1 mL TRIZOL™ (Invitrogen) using the manufacturer's recommended protocols. […] Real-time RT-PCR analysis was also performed on HeLa cells treated with ISIS 327917 using a primer/probe set specific for the mir-21 pri-miRNA molecule [forward primer=ISIS 339332 ([…]; herein incorporated as SEQ ID NO.: 911), reverse primer-ISIS 339333 (TCGACTGGTGTTGCCATGA; herein incorporated as SEQ ID NO.: 912), and probe=ISIS 339334 ([…]; herein incorporated as SEQ ID NO.: 913)]. Total RNA was quantified using RiboGreen™ RNA quantification reagent (Molecular Probes, Inc. Eugene, Oreg.), expression levels observed for the target were normalized to 5.8S rRNA, and values were expressed relative to an untreated control (UTC).
Using the real-time RT-PCR methods, the expression levels of the mir-21 pri-miRNA were compared in HeLa cells treated with this nested series of uniform 2′-MOE oligomeric compounds, targeting and spanning the entire length of the mir-21 pri-miRNA. ISIS Number 358768 (SEQ ID NO: 918) targets a region flanking the predicted 5′ Drosha cleavage site in the mir-21 pri-miRNA. ISIS Number 358777 (SEQ ID NO: 927) targets a region spanning the 3′ Drosha cleavage site in the mir-21 pri-miRNA. ISIS 358779 (SEQ ID NO: 929) targets a region flanking the predicted 3′ Drosha cleavage site in the mir-21 pri-miRNA. Additionally, oligomeric compounds ISIS 327917 (SEQ ID NO: 335), a uniform 2′-MOE compound targeting the mature mir-21 miRNA, and ISIS 345382 ([…]; SEQ ID NO: 335), a 5-10-7 phosphorothioate 2′-MOE gapmer targeting mir-21, were tested for comparison. Oligomeric compound ISIS 327863 ([…]; herein incorporated as SEQ ID NO: 936), a phosphorothioate 5-10-52′-MOE gapmer, was used as scrambled control. […] Total RNA was isolated by lysing cells in 1 mL TRIZOL™ (Invitrogen) using the manufacturer's recommended protocols. real-time RT-PCR analysis was performed using the primer/probe set specific for the mir-21 pri-miRNA molecule [forward primer=ISIS 339332 (SEQ ID NO.: 911), reverse primer-ISIS 339333 (SEQ ID NO.: 912), and probe=ISIS 339334 (SEQ ID NO.: 913)]. Total RNA was quantified using RiboGreen™ RNA quantification reagent (Molecular Probes, Inc. Eugene, Oreg.), expression levels observed for each target were normalized to 5.8S rRNA, and values were expressed relative to the untreated control (UTC). Effects on expression of the mir-21 pri-miRNA molecule resulting from treatment of HeLa cells with these uniform 2′-MOE oligomeric compounds is expressed as a percentage of RNA levels in untreated control cells.

[2] = system: B16-F10 cells; assay: Cell cycle assay in B16-F10 cells; assay type: cell-based, mouse; conditions: 150 nM, 48 hours, relative to untreated control
Experimental: BJ cells were routinely cultured in MEM high glucose with 2 mM L-glutamine and Earle's BSS adjusted to contain 1.5 g/L sodium bicarbonate and supplemented with 10% fetal bovine serum, 0.1 mM non-essential amino acids and 1.0 mM sodium pyruvate (all media and supplements from Invitrogen Life Technologies, Carlsbad, Calif.). B16-F10 cells were routinely cultured in DMEM high glucose (Invitrogen Life Technologies, Carlsbad, Calif.) supplemented with 10% fetal bovine serum (Invitrogen Life Technologies, Carlsbad, Calif.). T47D cells were cultured in DMEM High glucose media (Invitrogen Life Technologies, Carlsbad, Calif.) supplemented with 10% fetal bovine serum. […] Cells were plated on collagen-coated 24-well plates (Falcon-Primaria #3047, BD Biosciences, Bedford, Mass.) at approximately 50,000 cells per well and allowed to attach to wells overnight.
In further studies, additional cell lines were treated with oligomeric compounds targeted against miRNAs to assess the effects of each oligomeric compound on cell cycling. BJ, B16, T47D, and HeLa cells were cultured and transfected as described above. […] T47Dp53 cells are T47D cells that have been transfected with and selected for maintenance of a plasmid that expresses a wildtype copy of the p53 gene (for example, pCMV-p53; Clontech, Palo Alto, Calif.), using standard laboratory procedures. BJ cells were treated with 200 nM of each oligomeric compound, and T47D, T47Dp53, HeLa, and B16 cells were treated with 150 nM of each oligomeric compound. The human foreskin fibroblast BJ cell line represents a non-cancer cell line, while HeLa, T47D, T47Dp53 cells and the mouse melanoma cell line B16-F10 represent cancerous cell lines. For comparison, oligomeric compounds ISIS 183891 (SEQ ID NO: 847) and ISIS 285717 ([…]; herein incorporated as SEQ ID NO: 857), both targeting the kinesin-like 1/Eg5 mRNA, involved in cell cycling, were used as positive controls. The random-mer ISIS 29848 was used as a negative control. Additionally, the oligomeric compounds ISIS Number 25690 ([…]; herein incorporated as SEQ ID NO: 858) and ISIS Number 25691 ([…]; herein incorporated as SEQ ID NO: 859), targeted to nucleotides 3051-3070 and 3085-3104, respectively, of the mRNA encoding the Drosha RNase III (GenBank Accession NM_013235.2, incorporated herein as SEQ ID NO: 860) were also tested. ISIS Number 25690 and ISIS Number 25691 are 5-10-52′-MOE gapmer compounds, 20 nucleotides in length, with phosphorothioate internucleoside linkages throughout the oligomeric compound. All cytidine residues are 5-methylcytidines. Transfections were performed using the methods described herein. Cells were prepared for flow cytometry 48-hours after oligonucleotide treatment. Results of these studies are shown in Table 35, where data are expressed as percentage of cells in each phase relative to the untreated control cells in that phase.

Substance	mir-21 pri-miRNA expression % UTC [1]	levels of the mir-21 pri-miRNA molecule [1]	further results
358772 (eG*eA*eG*eA*eT*eT*e[5mC]*eA*eA*e[5mC]*eA*eG*eT*e[5mC]*eA*eA*e[5mC]*eA*eT*e[5mC]; antisense) [compound 358772]	245 % UTC	–	–
ISIS 358777: uniform 2′-MOE PS; SEQ ID NO: 927; region spanning 3′ Drosha cleavage site of mir-21 pri-miRNA (antisense e[5mC]*e[5mC]*eA*eA*eA*eA*eT*eG*eT*e[5mC]*eA*eG*eA*e[5mC]*eA*eG*e[5mC]*e[5mC]*e[5mC]*eA) [uniform 2′-MOE PS; region spanning 3′ Drosha cleavage site of mir-21 pri-miRNA]	–	stimulate an increase in levels of the mir-21 pri-miRNA molecule; also recorded: stimulate the greatest increases in expression of the mir-21 pri-miRNA	–
ISIS 358785: uniform 2′-MOE PS; targets mir-21 pri-miRNA (antisense eG*eA*eA*eA*eG*eA*eT*eA*e[5mC]*e[5mC]*eA*eA*eA*eA*eT*eG*eT*e[5mC]*eA*eG)	–	stimulate an increase in levels of the mir-21 pri-miRNA molecule	–
ISIS 358780: uniform 2′-MOE PS; targets mir-21 pri-miRNA (antisense eA*eA*e[5mC]*eA*eT*eT*eG*eG*eA*eT*eA*eT*eG*eG*eA*eT*eG*eG*eT*e[5mC])	–	stimulate an increase in levels of the mir-21 pri-miRNA molecule	–
ISIS 358779: uniform 2′-MOE PS; SEQ ID NO: 929; region flanking 3′ Drosha cleavage site of mir-21 pri-miRNA (antisense eG*eG*eT*e[5mC]*eA*eG*eA*eT*eG*eA*eA*eA*eG*eA*eT*eA*e[5mC]*e[5mC]*eA*eA) [uniform 2′-MOE PS; region flanking 3′ Drosha cleavage site of mir-21 pri-miRNA]	–	stimulate an increase in levels of the mir-21 pri-miRNA molecule; also recorded: stimulate the greatest increases in expression of the mir-21 pri-miRNA	mir-21 pri-miRNA levels, dose response [1]: dose-responsive induction of mir-21 pri-miRNA levels
358771 (e[5mC]*eA*eA*e[5mC]*eA*eG*eT*e[5mC]*eA*eA*e[5mC]*eA*eT*e[5mC]*eA*eG*eT*e[5mC]*eT*eG; antisense) [compound 358771]	181 % UTC	–	–
ISIS 358768: uniform 2′-MOE PS; SEQ ID NO: 918; region flanking 5′ Drosha cleavage site of mir-21 pri-miRNA (antisense eA*eG*eG*eT*eG*eG*eT*eA*e[5mC]*eA*eG*e[5mC]*e[5mC]*eA*eT*eG*eG*eA*eG*eA) [uniform 2′-MOE PS; region flanking 5′ Drosha cleavage site of mir-21 pri-miRNA]	–	stimulate an increase in levels of the mir-21 pri-miRNA molecule; also recorded: stimulate the greatest increases in expression of the mir-21 pri-miRNA	mir-21 pri-miRNA levels, dose response [1]: dose-responsive induction of mir-21 pri-miRNA levels
ISIS 358769: uniform 2′-MOE PS; targets mir-21 pri-miRNA (antisense eG*eA*eT*eA*eA*eG*e[5mC]*eT*eA*e[5mC]*e[5mC]*e[5mC]*eG*eA*e[5mC]*eA*eA*eG*eG*eT)	–	stimulate an increase in levels of the mir-21 pri-miRNA molecule	–
358767 (eG*eG*eA*eG*eA*eT*eG*eT*e[5mC]*eA*e[5mC]*eG*eA*eT*eG*eG*eT*eA*eG*eG; antisense) [compound 358767]	248 % UTC	–	–
285717 (antisense TCGGTTCTTTCCAAGGCTGA; chemistry not given here) [compound 285717]	–	–	% cells in cell cycle phase G1 [2]: 72%; % cells in cell cycle phase G2/M [2]: 220%; % cells in cell cycle phase S [2]: 78%; % cells in cell cycle phase aneuploid [2]: 178%; % cells in cell cycle phase subG1 [2]: 627%
358765 (eA*e[5mC]*eA*eA*eG*e[5mC]*eA*eG*eA*e[5mC]*eA*eG*eT*e[5mC]*eA*eG*eG*e[5mC]*eA*eG; antisense) [compound 358765]	133 % UTC	–	–
358783 (antisense eG*eA*eG*eT*eT*eT*e[5mC]*eT*eG*eA*eT*eT*eA*eT*eA*eA*eA*e[5mC]*eA*eA) [compound 358783]	133 % UTC	–	–
358766 (eG*eG*eT*eA*eG*eG*e[5mC]*eA*eA*eA*eA*e[5mC]*eA*eA*eG*e[5mC]*eA*eG*eA*e[5mC]; antisense) [compound 358766]	142 % UTC	–	–
358782 (antisense eA*eA*e[5mC]*eA*eA*eT*eG*eA*eT*eG*e[5mC]*eT*eG*eG*eG*eT*eA*eA*eT*eG) [compound 358782]	155 % UTC	–	–
358784 (antisense e[5mC]*eG*eA*e[5mC]*eA*eA*eG*eG*eT*eG*eG*eT*eA*e[5mC]*eA*eG*e[5mC]*e[5mC]*eA*eT) [compound 358784]	358 % UTC	–	–
ISIS 358775: uniform 2′-MOE PS; targets mir-21 pri-miRNA (antisense eA*e[5mC]*eA*eG*e[5mC]*e[5mC]*e[5mC]*eA*eT*e[5mC]*eG*eA*e[5mC]*eT*eG*eG*eT*eG*eT*eT)	–	stimulate an increase in levels of the mir-21 pri-miRNA molecule	–
ISIS 358784: uniform 2′-MOE PS; targets mir-21 pri-miRNA (antisense e[5mC]*eG*eA*e[5mC]*eA*eA*eG*eG*eT*eG*eG*eT*eA*e[5mC]*eA*eG*e[5mC]*e[5mC]*eA*eT)	–	stimulate an increase in levels of the mir-21 pri-miRNA molecule	–
ISIS 358776: uniform 2′-MOE PS; targets mir-21 pri-miRNA (antisense eT*eG*eT*e[5mC]*eA*eG*eA*e[5mC]*eA*eG*e[5mC]*e[5mC]*e[5mC]*eA*eT*e[5mC]*eG*eA*e[5mC]*eT)	–	stimulate an increase in levels of the mir-21 pri-miRNA molecule	–

Source: patent US8178506B2, “Oligomeric compounds and compositions for use in modulation of small non-coding RNAs” (Regulus Therapeutics Inc., priority 2003, dated 2012)
